This passage reports EC50 results from patent publication US9290451B2 (Hoffmann-La Roche Inc., priority 2011, dated 2016).

As usually defined, the EC50 is the concentration at which the effect is half-maximal.

Read-outs that look alike come from different tables or passages of the source.

For experiment [1], the target named is human CB2 receptors (Homo sapiens (Human), UniProt P34972). Description: cAMP assay, CHO cells expressing human CB2 receptors. The class given is cell-based. In outline: (§1)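 Agonist EC50 values come from cAMP levels measured in intact CHO cells. Compounds act for 30 min at 30 °C in the presence of 1 mM IBMX, and cAMP is then detected by time-resolved energy transfer after lysis.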
Background: Changes in cAMP serve as a functional read-out for many G protein-coupled receptors.

Experiment [2] deals with human CB1 receptors (Homo sapiens (Human), UniProt P21554). Put plainly: cAMP assay, CHO cells expressing human CB1 receptors. In kind it is cell-based. In outline: as §1
Setting [3] is: CHO cells expressing human CB2, cAMP, read-out: human CB2 EC50.
[4] abbreviates: CHO cells expressing human CB1, cAMP, read-out: human CB1 EC50.

Chain of human CB2 receptors (P34972 whole entry): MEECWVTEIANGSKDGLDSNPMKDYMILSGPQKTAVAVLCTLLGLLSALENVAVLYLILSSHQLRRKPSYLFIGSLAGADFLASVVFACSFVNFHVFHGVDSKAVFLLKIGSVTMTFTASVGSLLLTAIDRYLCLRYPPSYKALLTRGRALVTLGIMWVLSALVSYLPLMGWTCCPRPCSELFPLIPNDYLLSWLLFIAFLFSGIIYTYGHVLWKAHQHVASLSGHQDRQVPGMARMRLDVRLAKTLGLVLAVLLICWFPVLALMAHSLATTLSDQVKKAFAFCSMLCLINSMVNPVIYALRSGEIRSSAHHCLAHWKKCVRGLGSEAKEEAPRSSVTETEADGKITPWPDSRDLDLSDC
Chain of human CB1 receptors (P21554 whole entry): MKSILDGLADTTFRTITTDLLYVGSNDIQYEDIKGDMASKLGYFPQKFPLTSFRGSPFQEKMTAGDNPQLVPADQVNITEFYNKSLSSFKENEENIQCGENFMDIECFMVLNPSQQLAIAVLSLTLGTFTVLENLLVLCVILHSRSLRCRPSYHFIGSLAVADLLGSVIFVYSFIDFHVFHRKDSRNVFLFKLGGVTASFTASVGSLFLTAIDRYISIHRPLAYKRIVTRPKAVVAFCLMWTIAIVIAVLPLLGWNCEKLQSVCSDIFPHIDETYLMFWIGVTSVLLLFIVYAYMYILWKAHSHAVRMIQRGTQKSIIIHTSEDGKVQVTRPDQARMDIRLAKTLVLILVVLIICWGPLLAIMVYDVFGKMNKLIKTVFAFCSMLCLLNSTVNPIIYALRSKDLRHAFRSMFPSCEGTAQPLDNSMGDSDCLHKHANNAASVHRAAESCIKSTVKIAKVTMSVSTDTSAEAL

Take `CCOC(=O)C(CC)(CC)NC(=O)c1ccc(Br)c(OCC2CC2)n1` [Example 265, 2-[(5-Bromo-6-cyclopropylmethoxy-pyridine-2-carbonyl)-amino]-2-ethyl-butyric acid ethyl ester]: the concentration for a half-maximal effect (EC50) in experiment [1] (setting [3]) is 2.8 nM; in experiment [2] (setting [4]) it was above 10000 nM.
For the compound `CCOC(=O)C(CC)(CC)NC(=O)c1ccc(N2CC(F)(F)C2)c(OCC2CC2)n1` [Example 266, 2-{[6-Cyclopropylmethoxy-5-(3,3-difluoro-azetidin-1-yl)-pyridine-2-carbonyl]-amino}-2-ethyl-butyric acid ethyl ester], the figures for the EC50 in experiment [1] (setting [3]) and in experiment [2] (setting [4]) were 2 nM and 1300 nM, respectively.
With `Cc1nc(C(C)(C)NC(=O)c2cccc(-c3ccc(Cl)c(F)c3)n2)no1` [Example 267, 6-(4-Chloro-3-fluoro-phenyl)-pyridine-2-carboxylic acid [1-methyl-1-(5-methyl-[1,2,4]oxadiazol-3-yl)-ethyl]-amide], the values for the concentration giving a half-maximal response (EC50) in experiment [1] (setting [3]) and in experiment [2] (setting [4]) were 26.4 nM and above 10000 nM, respectively.
On to `Cc1nc(C(C)(C)NC(=O)c2cccc(-c3ccc(F)c(Cl)c3)n2)no1` [Example 268, 6-(3-Chloro-4-fluoro-phenyl)-pyridine-2-carboxylic acid [1-methyl-1-(5-methyl-[1,2,4]oxadiazol-3-yl)-ethyl]-amide], for which the EC50 in experiment [1] (setting [3]) is 8.7 nM; in experiment [2] (setting [4]) it was 337 nM.
Take `CCC(CC)(NC(=O)c1ccc(N2CC(F)(F)C2=O)c(OCC2CC2)n1)C(=O)OC` [Example 269, 2-{[6-Cyclopropylmethoxy-5-(3,3-difluoro-2-oxo-azetidin-1-yl)-pyridine-2-carbonyl]-amino}-2-ethyl-butyric acid methyl ester]: the EC50 was 47.3 nM in experiment [1] (setting [3]) and above 10000 nM in experiment [2] (setting [4]).
Take `COC(=O)[C@H](CC(C)C)NC(=O)c1ccc(C2CC2)c(OCC2CC2)n1` [Example 270, (S)-2-[(5-Cyclopropyl-6-cyclopropylmethoxy-pyridine-2-carbonyl)-amino]-4-methyl-pentanoic acid methyl ester]: the figures for the EC50 in experiment [1] (setting [3]) and in experiment [2] (setting [4]) were 1.3 nM and 91.4 nM, respectively.
With `CC(C)CC(C#N)NC(=O)c1ccc(N2CC(F)(F)C2)c(OCC2CC2)n1` (stereo not shown) [Example 271, 6-Cyclopropylmethoxy-5-(3,3-difluoro-azetidin-1-yl)-pyridine-2-carboxylic acid (1-cyano-3-methyl-butyl)-amide], the EC50 was 7.9 nM in experiment [1] (setting [3]) and above 10000 nM in experiment [2] (setting [4]).
Take `Cc1nc(C(CC(C)C)NC(=O)c2ccc(N3CC(F)(F)C3)c(OCC3CC3)n2)no1` (stereo not shown) [Example 272, 6-Cyclopropylmethoxy-5-(3,3-difluoro-azetidin-1-yl)-pyridine-2-carboxylic acid [3-methyl-1-(5-methyl-[1,2,4]oxadiazol-3-yl)-butyl]-amide]: the EC50 in experiment [1] was 4.3 nM; in experiment [2], above 10000 nM.
Turning to `CC(C)CC(C)(CO)NC(=O)c1ccc(N2CC(F)(F)C2)c(OCC2CC2)n1` (stereo not shown) [Example 273, 6-Cyclopropylmethoxy-5-(3,3-difluoro-azetidin-1-yl)-pyridine-2-carboxylic acid (1-hydroxymethyl-1,3-dimethyl-butyl)-amide], the EC50 is 5.4 nM in experiment [1] and 1250 nM in experiment [2].
Turning to `CCC(CC)(NC(=O)c1ccc(C2CC2)c(OCC2CC2)n1)C(=O)N1CCC1` [Example 274, 5-Cyclopropyl-6-cyclopropylmethoxy-pyridine-2-carboxylic acid [1-(azetidine-1-carbonyl)-1-ethyl-propyl]-amide], the values for the EC50 in experiment [1] (setting [3]) and in experiment [2] (setting [4]) were 1.6 nM and 351 nM, respectively.
The like results for `CCC(CC)(NC(=O)c1ccc(C2CC2)c(OCC2CC2)n1)C(=O)NCCOC` [Example 275, 5-Cyclopropyl-6-cyclopropylmethoxy-pyridine-2-carboxylic acid [1-ethyl-1-(2-methoxy-ethylcarbamoyl)-propyl]-amide] were, in that order, 51.8 nM and above 10000 nM.
For `CCN(C)C(=O)C(CC)(CC)NC(=O)c1ccc(C2CC2)c(OCC2CC2)n1` [Example 276, 5-Cyclopropyl-6-cyclopropylmethoxy-pyridine-2-carboxylic acid [1-ethyl-1-(ethyl-methyl-carbamoyl)-propyl]-amide], the figures for the EC50 in experiment [1] (setting [3]) and in experiment [2] (setting [4]) were 24.6 nM and above 10000 nM, respectively.
For the compound `CC(C)C[C@H](NC(=O)c1cccc(Cc2ccc(F)cc2)n1)C(N)=O` [Example 277, 6-(4-Fluoro-benzyl)-pyridine-2-carboxylic acid ((S)-1-carbamoyl-3-methyl-butyl)-amide], the concentration for a half-maximal effect (EC50) worked out at 16.6 nM in experiment [1] (setting [3]) and 1700 nM in experiment [2] (setting [4]).
On to `O=C(N[C@H](c1ccccn1)C(F)(F)F)c1cccc(Cc2ccc(F)cc2)n1` [Example 278, 6-(4-Fluoro-benzyl)-pyridine-2-carboxylic acid ((R)-2,2,2-trifluoro-1-pyridin-2-yl-ethyl)-amide], for which the EC50 in experiment [1] (setting [3]) worked out at 20.2 nM; in experiment [2] (setting [4]), 357 nM.
Take `CC(C)[C@@](C)(CO)NC(=O)c1ccc(C2CC2)c(OCC2CC2)n1` [Example 279, 5-Cyclopropyl-6-cyclopropylmethoxy-pyridine-2-carboxylic acid ((S)-1-hydroxymethyl-1,2-dimethyl-propyl)-amide]: the concentration giving a half-maximal response (EC50) is 23 nM in experiment [1] (setting [3]) and above 10000 nM in experiment [2] (setting [4]).
Turning to `CC1(COc2nc(C(=O)NC(C)(C)c3nccs3)ccc2Br)COC1` [Example 280, 5-Bromo-6-(3-methyl-oxetan-3-ylmethoxy)-pyridine-2-carboxylic acid (1-methyl-1-thiazol-2-yl-ethyl)-amide], the EC50 in experiment [1] (setting [3]) was 118 nM; in experiment [2] (setting [4]), 1490 nM.
As for `CC1(COc2nc(C(=O)NC3(c4nccs4)COC3)ccc2Br)COC1` [Example 281, 5-Bromo-6-(3-methyl-oxetan-3-ylmethoxy)-pyridine-2-carboxylic acid (3-thiazol-2-yl-oxetan-3-yl)-amide], the values for the EC50 in experiment [1] (setting [3]) and in experiment [2] (setting [4]) were 447 nM and above 10000 nM, respectively.
On to `O=C(NC1(c2nccs2)COC1)c1ccc(Br)c(OCC(F)(F)F)n1` [Example 282, 5-Bromo-6-(2,2,2-trifluoro-ethoxy)-pyridine-2-carboxylic acid (3-thiazol-2-yl-oxetan-3-yl)-amide], for which the EC50 in experiment [1] (setting [3]) is 368 nM; in experiment [2] (setting [4]) it was above 10000 nM.
`CC1(COc2nc(C(=O)NC(c3ccccn3)C(F)(F)F)ccc2Br)COC1` (stereo not shown) [Example 283, 5-Bromo-6-(3-methyl-oxetan-3-ylmethoxy)-pyridine-2-carboxylic acid (2,2,2-trifluoro-1-pyridin-2-yl-ethyl)-amide]: the EC50 was 109 nM in experiment [1] (setting [3]) and above 10000 nM in experiment [2] (setting [4]).
With `CCC(CC)(NC(=O)c1ccc(C2CC2)c(OCC2CC2)n1)C(=O)NCC1CC1` [Example 284, 5-Cyclopropyl-6-cyclopropylmethoxy-pyridine-2-carboxylic acid [1-(cyclopropylmethyl-carbamoyl)-1-ethyl-propyl]-amide], the values for the EC50 in experiment [1] (setting [3]) and in experiment [2] (setting [4]) were 27 nM and above 10000 nM, respectively.
Turning to `CC(C)(NC(=O)c1ccc(C2CC2)c(OCC2CC2)n1)c1ccccn1` [Example 285, 5-Cyclopropyl-6-cyclopropylmethoxy-pyridine-2-carboxylic acid (1-methyl-1-pyridin-2-yl-ethyl)-amide], the results for the EC50 in experiment [1] (setting [3]) and in experiment [2] (setting [4]) were 31.6 nM and 703 nM, respectively.
Regarding `CNC(=O)[C@H](CC(C)(C)C)NC(=O)c1cccc(Cc2ccc(F)cc2)n1` [Example 286, 6-(4-Fluoro-benzyl)-pyridine-2-carboxylic acid ((S)-3,3-dimethyl-1-methylcarbamoyl-butyl)-amide], the figures for the EC50 in experiment [1] (setting [3]) and in experiment [2] (setting [4]) were 8.2 nM and 1870 nM, respectively.
Consider `CCC(CC)(NC(=O)c1ccc(C2CC2)c(OCC2CC2)n1)C(=O)N1CC(F)(F)C1` [Example 287, 5-Cyclopropyl-6-cyclopropylmethoxy-pyridine-2-carboxylic acid [1-(3,3-difluoro-azetidine-1-carbonyl)-1-ethyl-propyl]-amide], for which the EC50 in experiment [1] (setting [3]) was 3.6 nM; in experiment [2] (setting [4]), above 10000 nM.
`CC(C)(NC(=O)c1ccc(N2CC(F)(F)C2)c(OCC(F)(F)F)n1)c1nccs1` [Example 288, 5-(3,3-Difluoro-azetidin-1-yl)-6-(2,2,2-trifluoro-ethoxy)-pyridine-2-carboxylic acid (1-methyl-4-thiazol-2-yl-ethyl)-amide]: the concentration giving a half-maximal response (EC50) was 163 nM in experiment [1] (setting [3]) and above 10000 nM in experiment [2] (setting [4]).
The like results for `CCOC(=O)C(CC)(CC)NC(=O)c1ccc(N2CCCC2)c(OCC2CC2)n1` [Example 289, 2-[(6-Cyclopropylmethoxy-5-pyrrolidin-1-yl-pyridine-2-carbonyl)-amino]-2-ethyl-butyric acid ethyl ester] were, in that order, 1.4 nM and 234 nM.
`CN1CC(NC(=O)c2ccc(N3CC(F)(F)C3)c(OCC3CC3)n2)CC1=O` (stereo not shown) [Example 290, 6-Cyclopropylmethoxy-5-(3,3-difluoro-azetidin-1-yl)-pyridine-2-carboxylic acid (1-methyl-5-oxo-pyrrolidin-3-yl)-amide]: the results for the EC50 in experiment [1] (setting [3]) and in experiment [2] (setting [4]) were 846 nM and above 10000 nM, respectively.
For the compound `CCC(CC)(NC(=O)c1ccc(N2CCCC2)c(OCC2CC2)n1)C(=O)O` [Example 291, 2-[(6-Cyclopropylmethoxy-5-pyrrolidin-1-yl-pyridine-2-carbonyl)-amino]-2-ethyl-butyric acid], the EC50 in experiment [1] (setting [3]) was 413 nM; in experiment [2] (setting [4]) it was above 10000 nM.
On to `O=C(NC1CCS(=O)(=O)C1)c1ccc(N2CC(F)(F)C2)c(OCC2CC2)n1` (stereo not shown) [Example 292, 6-Cyclopropylmethoxy-5-(3,3-difluoro-azetidin-1-yl)-pyridine-2-carboxylic acid (1,1-dioxo-tetrahydro-1λ^6-thiophen-3-yl)-amide], for which the EC50 in experiment [1] (setting [3]) was 874 nM; in experiment [2] (setting [4]), above 10000 nM.
Regarding `O=C(NNC1CCS(=O)(=O)C1)c1ccc(N2CC(F)(F)C2)c(OCC2CC2)n1` (stereo not shown) [Example 293, 6-Cyclopropylmethoxy-5-(3,3-difluoro-azetidin-1-yl)-pyridine-2-carboxylic acid N′-(1,1-dioxo-tetrahydro-1λ^6-thiophen-3-yl)-hydrazide], the EC50 was 790 nM in experiment [1] (setting [3]) and above 10000 nM in experiment [2] (setting [4]).
